In US9808448B2, “Pharmaceutical compounds and use of same in cancer and tauopathies” (THE REGENTS OF THE UNIVERSITY OF MICHIGAN, priority 2013, dated 2017):

Test system: MDA-MB-231
Experiment: Cancer activity screen (MTT cell survival), MDA-MB-231
Format: cell-based
Conditions: Homo sapiens, second table

SMILES	IC50 [µM]
C=CCn1c(=O)/c(=C2\Sc3cccc(F)c3N2C)s/c1=C\c1ccncc1	0.38 ± 0.03
CCN1C(=O)/C(=C2\Sc3ccc(F)cc3N2C)S/C1=N\c1ccccc1	9.18 ± 1.04
CCn1c(=O)/c(=C2\Sc3cc(OC(F)(F)F)ccc3N2C)s/c1=C\c1cccc[n+]1Cc1ccccc1	0.71 ± 0.12
CCn1c(=O)/c(=C2\Sc3cc(C#N)ccc3N2C)s/c1=C\c1cccc[n+]1Cc1ccccc1	1.4 ± 0.1
CCn1c(=O)/c(=C2\Sc3cc(Cl)ccc3N2C)s/c1=C\c1scc[n+]1Cc1ccc([N+](=O)[O-])o1	> 30
CCn1c(=O)/c(=C2\Sc3cc(Cl)ccc3N2C)s/c1=C\c1scc[n+]1Cc1ccc(C(F)(F)F)o1	0.12 ± 0.02
CCn1c(=O)/c(=C2\Sc3cc(C#N)ccc3N2C)s/c1=C\c1ccccn1	22.3 ± 4.61
CCn1c(=O)/c(=C2\Sc3cc(Cl)ccc3N2C)s/c1=C\c1scc[n+]1Cc1ccc(F)cc1	1.07 ± 0.19
CCn1c(=O)/c(=C2\Sc3cc(Cl)ccc3N2C)s/c1=C\c1scc[n+]1Cc1cccc(F)c1	1.01 ± 0.16
CCn1c(=O)/c(=C2\Sc3cc(Cl)ccc3N2C)s/c1=C\c1scc[n+]1Cc1ccc(C(F)(F)F)cc1	1.2 ± 0.15
CCn1c(=O)/c(=C2\Sc3cc(Cl)ccc3N2C)s/c1=C\c1scc[n+]1Cc1ccccc1F	0.29 ± 0.04
COC(=O)Cn1c(=O)/c(=C2\Sc3cc(F)ccc3N2C)s/c1=C\c1ccccn1	> 20
COC(=O)Cn1c(=O)/c(=C2\Sc3ccc(F)cc3N2C)s/c1=C\c1ccccn1	> 20
COC(=O)Cn1c(=O)/c(=C2\Sc3cc(F)ccc3N2C)s/c1=C\c1ccncc1	2 ± 0.2
COC(=O)Cn1c(=O)/c(=C2\Sc3ccc(F)cc3N2C)s/c1=C\c1ccncc1	> 20
COC(=O)Cn1c(=O)/c(=C2\Sc3cccc(F)c3N2C)s/c1=C\c1ccccn1	> 20
COC(=O)Cn1c(=O)/c(=C2\Sc3c(F)cccc3N2C)s/c1=C\c1ccccn1	> 20
COC(=O)Cn1c(=O)/c(=C2\Sc3cccc(F)c3N2C)s/c1=C\c1ccncc1	> 20
COC(=O)Cn1c(=O)/c(=C2\Sc3c(F)cccc3N2C)s/c1=C\c1ccncc1	> 20
CCn1c(=O)/c(=C2\Sc3cc(C(F)(F)F)ccc3N2C)s/c1=C\c1ccncc1	> 20
CCn1c(=O)/c(=C2\Sc3cc(Cl)ccc3N2C)s/c1=C\c1scc[n+]1C(C)C(=O)c1ccccc1 (stereo not shown)	0.34 ± 0.03
CN1/C(=c2\s/c(=C\c3ccncc3)n(CC(=O)O)c2=O)Sc2cccc(F)c21	> 20

SMILES	IC50 [µM]
CN1/C(=c2\s/c(=C\c3ccncc3)n(CC(=O)O)c2=O)Sc2cc(F)ccc21	> 20
COC(=O)CCn1c(=O)/c(=C2\Sc3cc(F)ccc3N2C)s/c1=C\c1scc[n+]1Cc1ccccc1	0.96 ± 0.07
COC(=O)CCn1c(=O)/c(=C2\Sc3cc(Cl)ccc3N2C)s/c1=C\c1ccccn1	> 20
CCn1c(=O)/c(=C2\Sc3cc(OC(F)(F)F)ccc3N2C)s/c1=C\c1scc[n+]1Cc1ccc(C(F)(F)F)o1	0.51 ± 0.03
COC(=O)[C@@H](C)n1c(=O)/c(=C2\Sc3cc(F)ccc3N2C)s/c1=C\c1scc[n+]1Cc1ccccc1	1.2 ± 0.14
CCn1c(=O)/c(=C2\Sc3cc(F)ccc3N2C)s/c1=C\c1scc[n+]1Cc1ccccc1	0.15 ± 0.01
COC(=O)Cn1c(=O)/c(=C2\Sc3cc(F)ccc3N2C)s/c1=C\c1scc[n+]1Cc1ccccc1	2.9 ± 0.3
CCn1c(=O)/c(=C2\Sc3cc(Cl)ccc3N2C)s/c1=C\c1scc[n+]1Cc1ccccc1C(F)(F)F	0.13 ± 0.01
CCn1c(=O)/c(=C2\Sc3cc(Cl)ccc3N2C)s/c1=C\c1scc[n+]1Cc1cccc(C(F)(F)F)c1	0.4 ± 0.04
CCn1c(=O)/c(=C2\Sc3cc(Cl)ccc3N2C)s/c1=C\c1scc[n+]1Cc1ccsc1C(=O)OC	0.076 ± 0.01
CCn1c(=O)/c(=C2\Sc3cc(Cl)ccc3N2C)s/c1=C\c1scc[n+]1Cc1ccsc1Br	0.2 ± 0.02
COC(=O)[C@@H](C)n1c(=O)/c(=C2\Sc3cc(F)ccc3N2C)s/c1=C\c1ccccn1	> 20
CCn1c(=O)/c(=C2\Sc3cc(Cl)ccc3N2C)s/c1=C\c1scc[n+]1Cc1cc(C)on1	0.22 ± 0.02
COC(=O)Cn1c(=O)/c(=C2\Sc3cc(Cl)ccc3N2C)s/c1=C\c1scc[n+]1Cc1ccccc1	> 20
COC(=O)Cn1c(=O)/c(=C2\Sc3cc(C(F)(F)F)ccc3N2C)s/c1=C\c1cccc[n+]1C	> 20
COC(=O)Cn1c(=O)/c(=C2\Sc3cc(C(F)(F)F)ccc3N2C)s/c1=C\c1scc[n+]1Cc1ccccc1	2.1 ± 0.4
CCn1c(=O)/c(=C2\Sc3ccc(Cl)cc3N2C)s/c1=C\c1nccs1	1.5 ± 0.3
CCn1c(=O)/c(=C2\Sc3ccc(Cl)cc3N2C)s/c1=C\c1scc[n+]1C	3.1 ± 0.4
CCn1c(=O)/c(=C2\Sc3cc(C(F)(F)F)ccc3N2C)s/c1=C\c1scc[n+]1Cc1ccccc1	0.36 ± 0.03
CCn1c(=O)/c(=C2\Sc3cc(Cl)ccc3N2C)s/c1=C\c1scc[n+]1Cc1cc(-c2ccccc2)no1	0.17 ± 0.01
CCn1c(=O)/c(=C2\Sc3cc(Cl)ccc3N2C)s/c1=C\c1nccs1	2.3 ± 0.6
CCn1c(=O)/c(=C2\Sc3cc(C(F)(F)F)ccc3N2C)s/c1=C\c1scc[n+]1C	8.5 ± 1

SMILES	IC50 [µM]
CCn1c(=O)/c(=C2\Sc3c(ccc(F)c3F)N2C)s/c1=C\c1scc[n+]1C	5.6 ± 0.6
CCn1c(=O)/c(=C2\Sc3cc(C(F)(F)F)ccc3N2C)s/c1=C\c1scc[n+]1CC	4.2 ± 0.6
CCn1c(=O)/c(=C2\Sc3c(ccc(F)c3F)N2C)s/c1=C\c1scc[n+]1Cc1ccccc1	0.24 ± 0.01
CCn1c(=O)/c(=C2\Sc3cc(C(F)(F)F)ccc3N2C)s/c1=C\c1nccs1	2.6 ± 0.5
CCn1c(=O)/c(=C2\Sc3c(ccc(F)c3F)N2C)s/c1=C\c1nccs1	11.7 ± 2.3
CCn1c(=O)/c(=C2\Sc3cc(C(F)(F)F)ccc3N2C)s/c1=C\c1cccc[n+]1CC	2.7 ± 0.6
CCn1c(=O)/c(=C2\Sc3ccc(Cl)cc3N2C)s/c1=C\c1cccc[n+]1Cc1ccccc1	0.34 ± 0.03
CCn1c(=O)/c(=C2\Sc3ccc(Cl)cc3N2C)s/c1=C\c1scc[n+]1Cc1ccc(C(F)(F)F)o1	0.3 ± 0.02
CCn1c(=O)/c(=C2\Sc3cc(Cl)ccc3N2C)s/c1=C\c1scc[n+]1Cc1cccnc1Br	1.6 ± 0.2
CCn1c(=O)/c(=C2\Sc3cc(Cl)ccc3N2C)s/c1=C\c1scc[n+]1Cc1ccsc1	0.11 ± 0.01
CCOC(=O)c1ccc(C[n+]2ccsc2/C=c2\s/c(=C3/Sc4cc(Cl)ccc4N3C)c(=O)n2CC)o1	0.72 ± 0.08
CCn1c(=O)/c(=C2\Sc3cc(Cl)ccc3N2C)s/c1=C\c1scc[n+]1Cc1csc(C)n1	0.74 ± 0.07
CCn1c(=O)/c(=C2\Sc3cc(F)ccc3N2C)s/c1=C\c1scc[n+]1Cc1ccc(C(F)(F)F)o1	0.16 ± 0.03
CCn1c(=O)/c(=C2\Sc3cc(F)ccc3N2C)s/c1=C\c1scc[n+]1Cc1ccsc1C(=O)OC	0.14 ± 0.02
CCn1c(=O)/c(=C2\Sc3ccc(Cl)cc3N2C)s/c1=C\c1scc[n+]1Cc1ccccc1C(F)(F)F	0.25 ± 0.03
CCn1c(=O)/c(=C2\Sc3cc(F)ccc3N2C)s/c1=C\c1scc[n+]1Cc1ccccc1C(F)(F)F	0.21 ± 0.03
CCn1c(=O)/c(=C2\Sc3cc(Cl)ccc3N2C)s/c1=C\c1scc[n+]1Cc1ccc(C(=O)OC)o1	0.97 ± 0.1
CCn1c(=O)/c(=C2\Sc3cc(F)ccc3N2C)s/c1=C\c1scc[n+]1Cc1ccc(C(=O)OC)o1	3.05 ± 0.42
CCn1c(=O)/c(=C2\Sc3cccc(C)c3N2C)s/c1=C\c1scc[n+]1Cc1ccccc1	0.21 ± 0.04
CCn1c(=O)/c(=C2\Sc3c(C)cccc3N2C)s/c1=C\c1scc[n+]1Cc1ccccc1	0.25 ± 0.03
CCn1c(=O)/c(=C2\Sc3ccc(Cl)cc3N2C)s/c1=C\c1scc[n+]1Cc1ccsc1C(=O)OC	0.16 ± 0.02
CCn1c(=O)/c(=C2\Sc3ccc(Cl)cc3N2C)s/c1=C\c1scc[n+]1Cc1ccsc1Br	0.24 ± 0.03

SMILES	IC50 [µM]
CCn1c(=O)/c(=C2\Sc3ccc(Cl)cc3N2C)s/c1=C\c1scc[n+]1Cc1ccsc1	0.44 ± 0.05
CCn1c(=O)/c(=C2\Sc3ccc(Cl)cc3N2C)s/c1=C\c1scc[n+]1Cc1cc(-c2ccccc2)no1	0.5 ± 0.04
CCn1c(=O)/c(=C2\Sc3ccc(C)cc3N2C)s/c1=C\c1scc[n+]1Cc1ccccc1	0.078 ± 0.01
CCn1c(=O)/c(=C2\Sc3cc(C)ccc3N2C)s/c1=C\c1scc[n+]1Cc1ccccc1	0.041 ± 0.006
CCn1c(=O)/c(=C2\Sc3ccc(Cl)cc3N2C)s/c1=C\c1scc[n+]1Cc1cc(C)on1	1.05 ± 0.09
CCn1c(=O)/c(=C2\Sc3c(ccc(F)c3F)N2C)s/c1=C\c1scc[n+]1Cc1cc(C)on1	1.33 ± 0.11
CCn1c(=O)/c(=C2\Sc3c(ccc(F)c3F)N2C)s/c1=C\c1scc[n+]1Cc1ccsc1	0.81 ± 0.06
CN1/C(=c2\s/c(=C\c3scc[n+]3Cc3ccccc3C(F)(F)F)n(C)c2=O)Sc2c1ccc(F)c2F	0.12 ± 0.009
CCn1c(=O)/c(=C2\Sc3c(ccc(F)c3F)N2C)s/c1=C\c1scc[n+]1Cc1ccc(C(F)(F)F)o1	0.51 ± 0.05
CCn1c(=O)/c(=C2\Sc3c(ccc(F)c3F)N2C)s/c1=C\c1scc[n+]1Cc1ccsc1Br	0.48 ± 0.06
CCn1c(=O)/c(=C2\Sc3c(ccc(F)c3F)N2C)s/c1=C\c1cccc[n+]1Cc1ccc(C(F)(F)F)o1	0.92 ± 0.1
CCn1c(=O)/c(=C2\Sc3c(ccc(F)c3F)N2C)s/c1=C\c1cccc[n+]1Cc1ccccc1C(F)(F)F	0.38 ± 0.07
CCn1c(=O)/c(=C2\Sc3c(ccc(F)c3F)N2C)s/c1=C\c1cccc[n+]1Cc1ccsc1Br	0.92 ± 0.17
CCn1c(=O)/c(=C2\Sc3c(ccc(F)c3F)N2C)s/c1=C\c1cccc[n+]1Cc1ccsc1	2.09 ± 0.31
CCn1c(=O)/c(=C2\Sc3c(ccc(F)c3F)N2C)s/c1=C\c1cccc[n+]1Cc1cc(-c2ccccc2)no1	1.33 ± 0.2
CCn1c(=O)/c(=C2\Sc3c(ccc(F)c3F)N2C)s/c1=C\c1cccc[n+]1Cc1cc(C)on1	3.72 ± 0.41
CCn1c(=O)/c(=C2\Sc3c(ccc(F)c3F)N2C)s/c1=C\c1cccc[n+]1Cc1ccsc1C(=O)OC	1.95 ± 0.27
CCn1c(=O)/c(=C2\Sc3c(ccc(F)c3F)N2C)s/c1=C\c1scc[n+]1Cc1ccsc1C(=O)OC	0.21 ± 0.03
CN1/C(=c2\s/c(=C\c3scc[n+]3Cc3ccccc3)n(C3CC3)c2=O)Sc2cc(Cl)ccc21	0.56 ± 0.08
CN1/C(=c2\s/c(=C\c3scc[n+]3Cc3ccccc3)n(C3CC3)c2=O)Sc2cc(F)ccc21	0.76 ± 0.08
CCn1c(=O)/c(=C2\Sc3ccc(OC(F)(F)F)cc3N2C)s/c1=C\c1scc[n+]1Cc1ccccc1	1.25 ± 0.13
CCn1c(=O)/c(=C2\Sc3ccc(S(C)(=O)=O)cc3N2C)s/c1=C\c1scc[n+]1Cc1ccccc1	> 20
